According to patent US20240041870A1, “METHODS OF TREATING SYSTEMIC LUPUS ERYTHEMATOSUS” (AbbVie Inc., priority 2022, published 2024):

Tested on: subjects with moderately to severely active SLE
Assay: Phase 2 Study M19-130: safety and efficacy of upadacitinib vs placebo, 48-week treatment period
Assay type: in vivo, human
Description: This was a Phase 2 Study (M19-130) to Investigate the Safety and Efficacy of Upadacitinib Given in Subjects with Moderately to Severely Active Systemic Lupus Erythematosus.
Subjects must have had active SLE by SLEDAI-2K ≥6 as reported and independently adjudicated (clinical score ≥4, excluding lupus headache and/or organic brain syndrome) at Screening and Baseline. If 4 points of the required entry points were for arthritis, there must also have been a minimum of 3 tender and 3 swollen joints.
The primary efficacy endpoint was achievement of SLE Responder Index (SRI)-4 and steroid dose ≤10 mg prednisone equivalent once a day (QD) at Week 24. SLE Responder Index (SRI)-4 is defined as ≥4-point reduction in Systemic Lupus Erythematosus Disease Activity Index 2000 (SLEDAI-2K) score without worsening of the overall condition (no worsening in Physician's Global Assessment [PhGA], <0.3 point increase) or the development of significant disease activity in new organ systems (no new British Isles Lupus Assessment Group ([BILAG]) A or >1 new BILAG B).
The following secondary efficacy endpoints were evaluated: • 1. Achievement of SRI-4 at Week 24 • 2. Achievement of BILAG-Based Combined Lupus Assessment (BICLA) response at Week 24 • 3. Achievement of Lupus Low Disease Activity State (LLDAS) at Week 24 • 4. Steroid burden, assessed as change from Baseline at Week 24 • 5. Number of mild, moderate, or severe flares per patient-year (respectively and overall) by Safety of Estrogens in Lupus Erythematosus National Assessment (SELENA) SLEDAI Flare Index (SFI), assessed by number and types of flare per subject through Week 24
The following additional efficacy endpoints were evaluated at all visits unless otherwise noted: • 1. Achievement of SRI-4 • 2. Achievement of SRI-5, -6, -7, -8 and steroid dose ≤10 mg prednisone equivalent QD at Weeks 24 and 48 • 3. Achievement of SRI-5, -6, -7, -8 • 4. Achievement of BICLA response • 5. Achievement of LLDAS • 6. Achievement of ≥4-point decrease in SLEDAI-2K from Baseline • 7. Steroid burden, assessed as change from Baseline • 8. Number of mild, moderate, or severe flares per patient-year (respectively and overall) by SELENA SFI, assessed by number and types of flare per subject through Week 24 and Week 48 • 9. Time to first flare by SELENA SFI after first study drug administration up to Week 24 and Week 48 • 10. Achievement of 50% reduction of tender or swollen lupus joints defined as ≥50% decrease in either tender or swollen joints (of those starting with total ≥6 affected joints) • 11. Achievement of 50% reduction in Cutaneous Lupus Erythematosus Disease Area and Severity Index (CLASI) activity score (of those starting with CLASI ≥10) • 12. Change in SLEDAI-2K from Baseline • 13. Change in BILAG from Baseline • 14. Change in PhGA from Baseline • 15. Change in Patient Global Assessment (PtGA) from Baseline • 16. Change from Baseline in Functional Assessment of Chronic Illness Therapy (FACIT)—Fatigue at Weeks 2, 12, 24, and 48 • 17. Change from Baseline in 36-Item Short Form Health Survey (SF-36) at Weeks 2, 12, 24, and 48 • 18. Change from Baseline Lupus Quality of Life questionnaire (LupusQoL) at Weeks 2, 12, 24, and 48 • 19. Change from Baseline Pain Numerical Rating Scale (NRS) at Weeks 2, 12, 24, and 48
The study was designed to investigate the safety and efficacy of upadacitinib in subjects with moderately to severely active SLE despite standard of care therapy. The study duration included a 42-day maximum screening period, a 48-week randomized, placebo-controlled, double-blind, parallel-group treatment period, and a 30-day follow-up phone call. The Week 24 Primary Analysis was performed when all subjects completed the Week 24 visit or discontinued the study. Sites and subjects remained blinded throughout the study. The study team remained blinded until the Week 24 Primary Analysis. […]

[1] = 30 mg QD oral, N = 62, Week 24 interim analysis (Example 1)
[2] = 30 mg QD oral, N = 62, Week 24 interim analysis (Example 1), listed as UPA
[3] = 30 mg QD oral, N = 62, final database (Example 2)
[4] = 30 mg QD oral, N = 62, full analysis set, Week 24 interim analysis (Example 1)
[5] = 30 mg QD oral, final database (Example 2)
[6] = 30 mg QD vs PBO (N = 75), stratum-adjusted, final database (Example 2)
[7] = 30 mg QD, N = 62, subject disposition, Week 24 interim analysis

Structure (SMILES): CC[C@@H]1CN(C(=O)NCC(F)(F)F)C[C@@H]1c1cnc2cnc3[nH]ccc3n12 [Upadacitinib, (3S,4R)-3-ethyl-4-(3H-imidazo[1,2-a]pyrrolo[2,3-e]pyrazin-8-yl)-N-(2,2,2-trifluoroethyl)pyrrolidine-1-carboxamide]
- Prednisone Equivalent Steroid Dose; Week 48; LS Mean Change (SE) (30 mg QD oral, N = 38, final database (Example 2)): −1.20 (0.524)
- Prednisone Equivalent Steroid Dose at Week 24; LS Mean Change (SE) (30 mg QD oral, N = 48, change from Baseline, Week 24 interim analysis (Example 1)): −0.64 (0.486)
- Prednisone Equivalent Steroid Dose; Week 24; LS Mean Change (SE) (30 mg QD oral, N = 48, final database (Example 2)): −0.62 (0.496)
- BICLA at Week 24; % [1]: 58.1%
- BICLA at Week 24; n [1]: 36 n
- Flares per SELENA SLEDAI Flare Index through Week 24; Any flares [1]: 1.73 Events/PY
- Flares per SELENA SLEDAI Flare Index through Week 24; Mild/Moderate [1]: 1.66 Events/PY
- Flares per SELENA SLEDAI Flare Index through Week 24; Severe [1]: 0.07 Events/PY
- LLDAS at Week 24; % [1]: (43.5) %
- LLDAS at Week 24; n [1]: 27 n
- SRI-4 at Week 24; % [1]: 53.6%
- SRI-4 at Week 24; n [1]: 33 n
- BICLA at Week 24; % [2]: (58.1) %
- SRI-4 at Week 24; % [2]: (53.2) %
- BICLA; Week 24; % [3]: (58.1) %
- BICLA; Week 24; n [3]: 36 n
- BICLA; Week 48; % [3]: (53.2) %
- BICLA; Week 48; n [3]: 33 n
- Flares per SELENA SLEDAI Flare Index Through Week 48; Any flares [3]: 2.04 Events/PY
- Flares per SELENA SLEDAI Flare Index Through Week 48; Mild/Moderate [3]: 1.88 Events/PY
- Flares per SELENA SLEDAI Flare Index Through Week 48; Severe [3]: 0.16 Events/PY
- Flares per SELENA SLEDAI Flare Index through Week 24; Any flares [3]: 1.87 Events/PY
- Flares per SELENA SLEDAI Flare Index through Week 24; Mild/Moderate [3]: 1.76 Events/PY
- Flares per SELENA SLEDAI Flare Index through Week 24; Severe [3]: 0.10 Events/PY
- LLDAS; Week 24; % [3]: (45.2) %
- LLDAS; Week 24; n [3]: 28 n
- LLDAS; Week 48; % [3]: (50.0) %
- LLDAS; Week 48; n [3]: 31 n
- SRI-4; Week 24; % [3]: (56.5) %
- SRI-4; Week 24; n [3]: 35 n
- SRI-4; Week 48; % [3]: 45.2%
- SRI-4; Week 48; n [3]: 28 n
- SRI-4 and Prednisone Equivalent Steroid Dose ≤10 mg; Week 24; % [3]: (54.8) %
- SRI-4 and Prednisone Equivalent Steroid Dose ≤10 mg; Week 48; % [3]: (43.5) %
- SRI-4 and Prednisone Equivalent Steroid Dose ≤10 mg; Week 48; n [3]: 27 n
- SRI-4; Week 48; % (30 mg QD oral, N = 62, final database (Example 2), listed as UPA): (45.2) %
- SRI-4 and Prednisone Equivalent Steroid Dose ≤10 mg at Week 24; % [4]: 51.6%
- SRI-4 and Prednisone Equivalent Steroid Dose ≤10 mg at Week 24; n [4]: 32 n
- SRI-4 and Prednisone Equivalent Steroid Dose ≤10 mg at Week 24; % (30 mg QD oral, N = 62, full analysis set, Week 24 interim analysis (Example 1), listed as UPA): (51.6) %
- SRI-4 and Prednisone Equivalent Steroid Dose ≤10 mg; Week 24; n (30 mg QD oral, N = 62, full analysis set, final database (Example 2)): 34 n
- 50% Reduction of Tender or Swollen Lupus Joints among Subjects with Total >=6 Affected Joints; Week 24; % [5]: (67.8) %
- 50% Reduction of Tender or Swollen Lupus Joints among Subjects with Total >=6 Affected Joints; Week 24; n [5]: 40/59
- 50% Reduction of Tender or Swollen Lupus Joints among Subjects with Total >=6 Affected Joints; Week 48; % [5]: (57.6) %
- 50% Reduction of Tender or Swollen Lupus Joints among Subjects with Total >=6 Affected Joints; Week 48; n [5]: 34/59
- BICLA; Week 48; Adj. Diff (−PBO) [95% CI] [6]: 30.8
- SRI-4; Week 48; Adj. Diff (−PBO) [95% CI] [6]: 30.4
- SRI-4 and Steroid Dose ≤10 mg prednisone equivalent QD; stratum-adjusted treatment difference (30 mg QD vs placebo, Week 24, Example 1): 14.0%
- Discontinued from the Study Drug (All Reasons): Adverse event; % [7]: 9.7%
- Discontinued from the Study Drug (All Reasons): Adverse event; n [7]: 6 n
- Discontinued from the Study Drug (Primary Reasons): Adverse event; % [7]: 8.1%
- Discontinued from the Study Drug (Primary Reasons): Adverse event; n [7]: 5 n
- Withdrawal from the Study (All Reasons): Adverse event; % [7]: 6.5%
- Withdrawal from the Study (All Reasons): Adverse event; n [7]: 4 n
- Withdrawal from the Study (Primary Reasons): Adverse event; % [7]: 4.8%
- Withdrawal from the Study (Primary Reasons): Adverse event; n [7]: 3 n
- response rate in BICLA after Week 24 (30 mg, Week 24 to Week 48): generally maintained
- response rate in SRI-4 after Week 24 (30 mg, Week 24 to Week 48): generally maintained
- flare compared to placebo (30 mg, over 48 weeks): reductions in flare
- time-to-first flare compared to placebo (30 mg, over 48 weeks): delays in time-to-first flare
- LLDAS at Week 24 compared with placebo (30 mg, p<0.001, Example 1): greater efficacy than placebo
- flare rate through Week 24 compared with placebo (30 mg, p=0.075, Example 1): lower flare rate
- response rate for achievement of BICLA at Week 48 (30 mg, text of Example 2): 53.2%
